Laboratory results taken from patent US10106522B2, “Benzimidazole derivatives as antihistamine agents” (Faes Farma, S.A., priority 2014, dated 2018).

Tested on: histamine papules
Test: Antihistaminic activity: histamine papules in rats (Evans blue extraction)
Assay type: in vivo
Settings: 20 mg/kg oral gavage, intradermal histamine one hour after administration
Description: Antihistaminic activity: histamine papules [Mota I., Life Sci., 1963, 12, 917-927; Lefebvre P. et al., C. R. Soc. Biol., 1962, 156, 183-186; and Udaka K. et al., Proc Soc Exp Biol Med, 1970, 133, 1384-1387]
Rats, males and/or females (110-160 g) were used, kept under the usual conditions of temperature and humidity. Previous day, backs of the animals were shaved and since that time (16-24 h) animals were subjected to solid fast but supplied ad libitum with an aqueous solution of sucrose (8%) and sodium chloride (0.2%). The compounds to be tested were dissolved in tartaric acid (Probus 015420) 0.1 M at a concentration of 5 mg/ml and then diluted with water until the concentration to be tested. This suspension or solution of the compound to be tested was administered by rigid oral gavage at 10 mL/kg. The control group received by the same administration mode a solution of tartaric acid (Probus 015420) 0.1 M in water. One hour after oral administration (products, patterns or vehicle), and under light ether anesthesia, two bumps were made on the shaved back by intradermal injection of Histamine hydrochloride (Sigma H-7250) dissolved in sterile saline (10 mg/0.1 mL/papule). Immediately after, dye injection of Evans blue (Merck No. 3169) dissolved in sterile saline (25 mg/kg/4 mL) was administered intravenously. […] The concentration of extracted Evans blue was determined by microplate reader.

Row | Compound | % inhibition, histamine papules [%]
1 | COC(=O)COCCN1CCC(c2nc3ccccc3n2CCOc2ccccc2)CC1 [drawing 37] | 45.03

Biological target: human histamine H1-receptor (Homo sapiens (Human), UniProt P35367)
Test: Affinity for histamine H1-receptor: 3H-pyrilamine binding to membranes of CHO cells transfected with the human H1 receptor
Settings: comparative compounds from the state of the art; same protocol; read-out: IC50, affinity for human histamine H1-receptor for comparative compounds
Description: Affinity for histamine H1-receptor was determined by binding studies to H1 receptors. The sample used is a suspension of membranes of CHO cells transfected with the human H1 receptor (5 mg/ml, PerkinElmer), stored at −80° C. until use. After thawing, the membranes were homogenized in assay buffer (50 mM Na/K phosphate) prepared in purified water and kept at room temperature (pH 7.4). The assay was performed in 96-well microplates. In each well, 25 μl of buffer and 25 μl of vehicle (total binding) or 10 μM pyrilamine (nonspecific binding) or the products to be tested was added. Subsequently, 200 μl of the membrane suspension was added to all wells and the microtiter plate was preincubated at 25° C. for 15 min. After this time, 25 μl of 3H-pyrilamine (1.5 nM) was added and the reaction was allowed to incubate for 60 min at 25° C. Then, free radioligand was quickly separated from bound radioligand by vacuum filtration (Multiscreen microplate Screener), performing 10 washes with assay buffer (4° C.). Subsequently 45 μl of scintillation fluid was added to each well and after sealing of the microplate, the radioactivity was quantified in a liquid scintillation counter (TopCount). The graphs of the inhibition curves and calculation the IC50 value were generated with the GraphPad Prism program.
Affinity for histamine H1-receptor of four compounds from the state of the art was determined by binding studies to H1 receptors using the same protocol as described above. The graphs of the inhibition curves and calculation the IC50 value were generated also with the GraphPad Prism program.

Chain of human histamine H1-receptor (P35367 whole entry): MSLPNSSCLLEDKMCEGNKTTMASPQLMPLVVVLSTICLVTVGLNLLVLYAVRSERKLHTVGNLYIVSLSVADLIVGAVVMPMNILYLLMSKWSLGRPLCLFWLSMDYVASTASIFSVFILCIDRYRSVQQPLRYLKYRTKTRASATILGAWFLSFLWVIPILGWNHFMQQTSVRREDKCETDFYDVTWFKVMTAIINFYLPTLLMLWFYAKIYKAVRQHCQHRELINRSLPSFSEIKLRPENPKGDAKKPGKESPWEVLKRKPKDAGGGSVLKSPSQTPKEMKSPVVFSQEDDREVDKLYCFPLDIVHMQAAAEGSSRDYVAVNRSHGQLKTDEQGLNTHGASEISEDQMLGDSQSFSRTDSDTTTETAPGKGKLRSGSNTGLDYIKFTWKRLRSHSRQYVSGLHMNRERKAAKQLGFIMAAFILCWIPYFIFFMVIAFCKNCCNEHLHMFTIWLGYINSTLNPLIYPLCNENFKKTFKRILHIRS

Row | Compound | IC50 [nM]
2 | CCOCCn1c(C2CCN(CCc3ccc(C(C)(C)C)cc3)CC2)nc2ccccc21 [reference compound] | 424
3 | CCOCCn1c(C2CCN(CCOc3ccc(CC(=O)O)cc3)CC2)nc2ccccc21 [reference compound] | 1990
4 | O=C(O)Cc1ccc(OCCN2CCC(c3nc4ccccc4n3CCOc3ccccc3)CC2)cc1 [reference compound] | 271
5 | O=C(O)c1ccc(OCCN2CCC(c3nc4ccccc4n3CCOc3ccccc3)CC2)cc1 [reference compound] | 260

Same assay, conditions: compounds of the invention; 3H-pyrilamine 1.5 nM, 60 min at 25° C., CHO cell membranes; read-out: IC50, affinity for human histamine H1-receptor

Row | Compound | IC50 [nM]
6 | CCOCCn1c(C2CCN(CCO)CC2)nc2ccccc21 | 25
7 | CCOCCOCCN1CCC(c2nc3ccccc3n2CCOCC)CC1 | 115
8 | CCOCCn1c(C2CCN(CCCO)CC2)nc2ccccc21 | 28
9 | CCOCCn1c(C2CCN(CCOC)CC2)nc2ccccc21 | 93
10 | CCOCCn1c(C2CCN(CCOC(C)=O)CC2)nc2ccccc21 | 54
11 | OCCN1CCC(c2nc3ccccc3n2Cc2ccccn2)CC1 | 175
12 | CCOCCn1c(C2CCN(CCOCC(=O)OCC)CC2)nc2ccccc21 | 169
13 | COC(=O)COCCN1CCC(c2nc3ccccc3n2CCOc2ccccc2)CC1 [drawing 32] | 195
